From the supplement of paper PMC10307832

Experiments:
Experiment in all cases: relative viability (nuclei count vs DMSO), 5 days (fraction); higher = more cells survive
IU1-47 + Olaparib = compound: CC1=CC(=C(N1C2=CC=C(C=C2)Cl)C)C(=O)CN3CCCCC3 [IU1-47] + O=C(c1cc(Cc2n[nH]c(=O)c3ccccc23)ccc1F)N1CCN(C(=O)C2CC2)CC1 [Olaparib] (partner 8 µM)
Procedure, shortened: (§1)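 A single step with final 0.05% Triton X-100, 1% formaldehyde and 1 ug/ml Hoechst fixed the cells and stained nuclei 5 days after treatment. Lung cancer cell lines in 1536-well plates had been treated by pin tool the day after seeding with one drug alone or a fixed anchor-drug dose plus five library-drug doses (not always all listed) in √10 steps, and nuclei were counted on 4× images. Relative viability is the ratio of nuclei in treated wells to nuclei in vehicle wells, taken as the median of duplicate plates.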

FG-4592 + Linsitinib = compound: Cc1nc(C(=O)NCC(=O)O)c(O)c2ccc(Oc3ccccc3)cc12 [FG-4592] + C[C@]1(O)C[C@@H](c2nc(-c3ccc4ccc(-c5ccccc5)nc4c3)c3c(N)nccn32)C1 [Linsitinib] (partner 1 µM)
Procedure, shortened: as §1

FG-4592 + Bortezomib = compound: Cc1nc(C(=O)NCC(=O)O)c(O)c2ccc(Oc3ccccc3)cc12 [FG-4592] + CC(C)C[C@H](NC(=O)[C@H](Cc1ccccc1)NC(=O)c1cnccn1)B(O)O [Bortezomib] (partner 0.002 µM)
Procedure, shortened: as §1

IU1-47 + Alpelisib = compound: CC1=CC(=C(N1C2=CC=C(C=C2)Cl)C)C(=O)CN3CCCCC3 [IU1-47] + Cc1nc(NC(=O)N2CCC[C@H]2C(N)=O)sc1-c1ccnc(C(C)(C)C(F)(F)F)c1 [Alpelisib] (partner 2 µM)
Procedure, shortened: as §1

Cell Line | relative viability (IU1-47 + Olaparib; first compound 0.08 µM) | relative viability (IU1-47 + Olaparib; first compound 0.253 µM) | relative viability (IU1-47 + Olaparib; first compound 0.8 µM) | relative viability (IU1-47 + Olaparib; first compound 2.53 µM) | relative viability (IU1-47 + Olaparib; first compound 8 µM) | relative viability (FG-4592 + Linsitinib; first compound 0.08 µM) | relative viability (FG-4592 + Linsitinib; first compound 0.253 µM) | relative viability (FG-4592 + Linsitinib; first compound 0.8 µM) | relative viability (FG-4592 + Linsitinib; first compound 8 µM) | relative viability (FG-4592 + Bortezomib; first compound 0.253 µM) | relative viability (FG-4592 + Bortezomib; first compound 0.8 µM) | relative viability (FG-4592 + Bortezomib; first compound 2.53 µM) | relative viability (FG-4592 + Bortezomib; first compound 8 µM) | relative viability (IU1-47 + Alpelisib; first compound 0.08 µM) | relative viability (IU1-47 + Alpelisib; first compound 0.253 µM) | relative viability (IU1-47 + Alpelisib; first compound 0.8 µM) | relative viability (IU1-47 + Alpelisib; first compound 2.53 µM) | relative viability (IU1-47 + Alpelisib; first compound 8 µM) | relative viability (FG-4592 + Linsitinib; first compound 2.53 µM) | relative viability (FG-4592 + Bortezomib; first compound 0.08 µM)
SK-LU-1 | 0.663 | 0.444 | 0.462 | 0.55 | 0.388 | 1.02 | 0.89 | 0.971 | 0.928 | 0.849 | 0.825 | 1.31 | 0.978 | 0.8 | 1.22 | 0.943 | 1.31 | 0.807 |  | 
COR-L 105 | 0.817 | 0.78 | 0.699 | 0.665 | 0.745 | 0.897 | 0.738 | 1.12 | 0.997 | 0.725 | 0.796 | 0.807 | 0.674 | 1.29 | 1.06 | 1.11 | 1.16 | 0.783 | 1.08 | 0.75
NCI-H1975 | 0.858 | 0.773 | 0.748 | 1.02 | 0.78 | 1.01 | 0.902 | 1.01 | 0.752 | 0.318 | 0.34 | 0.4 | 0.307 | 0.684 | 0.619 | 0.708 | 0.659 | 0.444 | 0.96 | 0.369
Calu-6 | 0.618 | 0.566 | 0.586 | 0.617 | 0.616 | 0.863 | 0.942 | 0.941 | 0.993 | 0.854 | 0.938 | 1.1 | 0.926 | 0.907 | 1.01 | 0.989 | 0.985 | 1.25 | 0.859 | 0.98
NCI-H1993 | 1.22 | 1.01 | 1.08 | 1.08 | 1.14 | 0.808 | 0.646 | 0.713 | 0.706 | 0.828 | 1.06 | 1.25 | 0.894 | 0.753 | 0.728 | 0.657 | 0.725 | 0.594 | 0.728 | 1.12
RERF-LC-KJ | 0.867 | 0.916 | 0.894 | 0.943 | 0.789 | 0.835 | 0.958 | 0.919 | 0.82 | 0.975 | 0.967 | 1.11 | 1.06 | 0.785 | 0.946 | 0.775 | 0.869 | 0.76 | 0.901 | 0.99
NCI-H23 | 0.288 |  | 0.281 | 0.385 | 0.257 | 0.611 | 0.501 | 0.635 | 0.463 | 0.977 | 0.962 | 0.834 | 0.826 | 0.703 | 0.881 | 0.723 | 0.777 | 0.824 | 0.496 | 0.922
HCC-366 | 0.511 | 0.328 | 0.423 | 0.312 | 0.292 | 0.443 | 0.571 | 0.551 | 0.517 | 1.01 | 1.11 | 1.12 | 0.99 | 0.479 | 0.424 | 0.524 |  | 0.231 | 0.693 | 0.9
EMC-BAC-2 | 0.507 | 0.548 | 0.402 | 0.534 | 0.533 | 0.846 | 0.767 | 0.767 | 0.833 | 1.04 | 0.934 | 1.02 | 1 | 0.768 | 0.824 | 0.793 | 0.749 | 0.711 | 0.836 | 1.04
NCI-H2405 | 0.876 | 0.871 | 0.956 | 0.91 | 0.945 |  | 0.583 | 0.884 | 0.72 | 0.894 | 0.998 | 0.922 | 0.952 | 0.795 | 0.761 | 0.749 |  | 0.768 | 0.801 | 0.906
EPLC-272H | 0.77 | 0.867 | 0.684 | 0.851 | 0.92 | 1.09 | 1.06 | 0.859 | 1.03 | 0.712 | 0.7 | 0.979 | 0.799 | 0.888 | 0.834 | 0.859 |  | 0.953 | 1.18 | 0.897
EBC-1 | 0.685 | 0.691 | 0.696 | 0.663 | 0.766 | 0.88 | 0.905 | 0.824 | 0.825 | 0.531 | 0.57 | 0.546 | 0.688 | 0.863 | 0.742 | 0.805 | 0.722 | 0.676 | 0.862 | 0.63
NCI-H1915 | 0.251 | 0.267 | 0.267 | 0.252 | 0.261 | 1.06 | 1.07 | 1.19 | 1.07 | 0.922 | 0.95 | 0.884 | 1.01 | 1.07 | 1.11 | 1.13 |  | 1.07 | 1.11 | 0.933
NCI-H596 | 0.676 |  | 0.754 | 0.718 | 0.632 | 1.28 | 1.01 |  | 0.983 | 0.808 |  | 0.994 | 0.983 | 0.638 | 0.44 | 0.0053 | 0.429 | 0.49 | 1.04 | 0.919
NCI-H322M | 0.838 | 0.838 | 0.813 | 0.845 | 0.757 | 0.858 | 0.914 | 0.807 | 0.861 | 1.18 | 1.17 | 1.25 | 1.3 | 0.802 | 0.82 | 0.805 | 0.755 | 0.831 | 0.92 | 1.37
NCI-H1299 | 0.982 | 1.03 | 0.958 | 0.923 | 0.959 | 0.979 | 0.939 | 0.956 | 0.964 | 0.993 | 0.951 | 1 | 1.06 | 1.05 | 1.11 | 1.13 | 1.13 | 0.987 | 0.989 | 1.07
NCI-H2228 | 0.738 | 0.575 | 0.596 | 0.869 | 0.504 | 0.586 | 0.628 | 0.795 | 0.727 | 0.872 | 0.786 | 1.1 | 0.737 | 0.904 | 1.06 | 0.687 | 0.796 | 0.451 | 0.612 | 0.928
IA-LM | 0.748 | 0.863 | 0.958 | 0.979 | 0.903 | 0.578 | 0.597 | 0.565 | 0.476 | 0.75 | 0.814 | 0.653 | 0.405 | 0.738 | 0.595 | 0.854 | 0.679 | 0.526 | 0.376 | 0.914
NCI-H647 | 0.661 | 0.755 | 0.556 | 0.783 | 0.333 | 1.18 | 1.1 | 1.3 | 1.16 | 0.846 | 0.844 | 0.912 | 0.958 | 1.18 | 1.21 | 1.19 | 1.07 | 0.383 | 1.32 | 0.977
NCI-H2085 | 0.777 | 0.763 | 0.747 | 0.768 | 0.742 | 0.804 | 0.861 | 0.758 | 0.815 | 1.02 | 1.01 | 0.963 | 1.06 | 1.04 | 0.973 | 1.02 | 0.975 | 0.856 | 0.878 | 0.998
SW 1573 | 0.592 | 0.462 | 0.445 | 0.453 | 0.501 | 0.732 | 0.714 | 0.893 | 0.782 | 0.954 | 0.963 | 1 | 1 | 0.905 | 0.758 | 0.664 | 0.756 | 0.839 | 0.721 | 1.04
NCI-H727 | 0.661 | 0.729 | 0.691 | 0.64 | 0.66 | 0.298 | 0.307 | 0.3 | 0.271 | 0.698 | 0.83 | 0.797 | 1.07 | 0.712 |  | 0.647 | 0.626 | 0.377 | 0.268 | 0.738
NCI-H441 | 0.61 | 0.591 | 0.511 | 0.543 | 0.539 | 0.451 | 0.498 | 0.477 | 0.562 | 0.647 | 0.356 | 0.44 | 0.367 | 0.672 | 0.82 | 0.616 | 0.92 | 0.779 | 0.57 | 0.272
LOU-NH91 | 1.02 | 0.995 | 0.877 | 0.966 | 0.886 | 0.92 | 0.83 | 0.755 | 0.907 | 0.49 | 0.48 | 0.455 | 0.568 | 0.761 | 0.75 | 0.71 | 0.692 | 0.668 | 0.938 | 0.509
NCI-H3122 | 0.644 | 0.665 | 0.692 | 0.692 | 0.696 | 0.95 | 1.03 | 1.07 | 0.816 | 1.02 | 1.13 | 1.07 | 1.07 | 0.82 | 1.02 | 0.97 | 0.967 | 0.724 | 1.02 | 1.03
NCI-H460 | 0.545 | 0.407 | 0.501 | 0.398 | 0.35 | 0.708 | 0.665 | 0.788 | 0.748 | 1.04 | 1.22 | 1.05 | 1.34 | 0.564 | 0.575 | 0.532 | 0.587 | 0.488 | 0.766 | 1.13
NCI-H650 | 0.447 | 0.426 | 0.378 | 0.4 | 0.413 | 0.884 | 0.704 | 0.669 | 0.631 | 0.771 | 0.525 | 0.66 | 0.807 | 1.28 | 1.14 | 1.2 | 1.09 | 1.01 | 0.724 | 0.903
